Experimental data published in patent US6727066B2, “Genes expressed in treated human C3A liver cell cultures” (Incyte Corporation, priority 2000, dated 2004).

Tested on: human C3A liver cell cultures
Experiment: Microarray differential expression of cDNAs in treated human C3A liver cell cultures
Assay type: cell-based
Conditions: change vs untreated C3A cells
From the text: Incyte clones represent template sequences derived from the LIFESEQ GOLD assembled human sequence database (Incyte Genomics). In cases where more than one clone was available for a particular template, the 5′-most clone in the template was used on the microarray. The GENEALBUM GEM series 1-6 microarrays (Incyte Genomics) contain 52,616 array elements which represent 17,472 annotated clusters and 35,144 unannotated clusters. The HUMAN GENOME GEM series 1-3 microarrays (Incyte Genomics) contain 28,626 array elements which represent 10,068 annotated clusters and 18,558 unannotated clusters. For the UNIGEM series microarrays (Incyte Genomics), Incyte clones were mapped to non-redundant Unigene clusters (Unigene database (build 46), NCBI; Shuler (1997) J Mol Med 75:694-698), and the 5′ clone with the strongest BLAST alignment (at least 90% identity and 100 bp overlap) was chosen, verified, and used in the construction of the microarray. The UNIGEM V microarray (Incyte Genomics) contains 7075 array elements which represent 4610 annotated genes and 2,184 unannotated clusters.
To construct microarrays, cDNAs were amplified from bacterial cells using primers complementary to vector sequences flanking the cDNA insert. […] Amplified cDNAs were then purified using […]-400 columns (APB). Purified cDNAs were immobilized on polymer-coated glass slides. Glass microscope slides (Corning, Corning N.Y.) were cleaned by ultrasound in 0.1% SDS and acetone, with extensive distilled water washes between and after treatments. Glass slides were etched in 4% hydrofluoric acid (VWR Scientific Products, West Chester Pa.), washed thoroughly in distilled water, and coated with 0.05% aminopropyl silane (Sigma Aldrich) in 95% ethanol. Coated slides were cured in a 110° C. oven. cDNAs were applied to the coated glass substrate using a procedure described in U.S. Pat. No. 5,807,522. One microliter of the cDNA at an average concentration of 100 ng/ul was loaded into the open capillary printing element by a high-speed robotic apparatus which then deposited about 5 nl of cDNA per slide.
Microarrays were UV-crosslinked using a […] UV-crosslinker (Stratagene), and then washed at room temperature once in 0.2% SDS and three times in distilled water. Non-specific binding sites were blocked by incubation of microarrays in 0.2% casein in phosphate buffered saline (Tropix, Bedford Mass.) for 30 minutes at 60° C. followed by washes in 0.2% SDS and distilled water as before.
Early confluent C3A cells (ATTC, Manassas Va.) were treated with captopril (0.5, 2, 48, and 60 μg/ml) for 1, 3, and 6 hours. Early confluent C3A cells were treated with enalapril (0.5, 2, 48, and 60 μg/ml) for 1, 3, and 6 hours. Early confluent C3A cells were treated with LY294002 (0.5, 2, 15, and 25 μg/ml) for 1, 3, and 6 hours. Early confluent C3A cells were starved of insulin for 3 days prior to treatment, then treated with LY294002 (10 μM) for 2, 24, 36, and 72 hours in the presence of insulin. Early confluent C3A cells were treated with DES (1, 10, and 100 μM) for 1, 3, and 6 hours. Early confluent C3A cells were treated with dexamethasone (1 and 20 μM) for 0, 2, 6, and 24 hours. Early confluent C3A cells were treated with MCA (0.5 and 10 μM) for 2, 6, and 24 hours. In all cases mRNA from untreated early confluent cells were prepared in parallel as described below.
Cells were harvested and lysed in 1 ml of TRIZOL reagent (5×10^6 cells/ml; Life Technologies). The lysates were vortexed thoroughly and incubated at room temperature for 2-3 minutes and extracted with 0.5 ml chloroform. The extract was mixed, incubated at room temperature for 5 minutes, and centrifuged at 15,000 rpm for 15 minutes at 4° C. The aqueous layer was collected and an equal volume of isopropanol was added.

SMILES: C[C@@H]1C[C@H]2[C@@H]3CCC4=CC(=O)C=C[C@]4(C)[C@@]3(F)[C@@H](O)C[C@]2(C)[C@@]1(O)C(=O)CO [Dexamethasone]
- expression level of cDNA clone 26474: −4.2
- expression level of cDNA clone 63038: −2.36
- expression level of cDNA clone 118501: 2.79
- expression level of cDNA clone 167081: 2.14
- expression level of cDNA clone 172023: −5.8
- expression level of cDNA clone 237027: −2.85
- expression level of cDNA clone 630625: 2.52
- expression level of cDNA clone 990375: −2.5
- expression level of cDNA clone 1379063: −3.42
- expression level of cDNA clone 1381654: 2.57
- expression level of cDNA clone 1441245: −2.3
- expression level of cDNA clone 1448718: −3.1
- expression level of cDNA clone 1468660: −3.3
- expression level of cDNA clone 1559756: 2.47
- expression level of cDNA clone 1616783: 2.55
- expression level of cDNA clone 1619292: −4.4
- expression level of cDNA clone 1623214: −2.25
- expression level of cDNA clone 1630990: 2.86
- expression level of cDNA clone 1696224: 2.83
- expression level of cDNA clone 1786554: 2.66
- expression level of cDNA clone 1833362: −3.7
- expression level of cDNA clone 1834236: −2.3
- expression level of cDNA clone 1846209: 2.2
- expression level of cDNA clone 1890576: −2.5
- expression level of cDNA clone 1975268: −3.35
- expression level of cDNA clone 1998269: 2.44
- expression level of cDNA clone 2046717: 2.8
- expression level of cDNA clone 2048551: 2.91
- expression level of cDNA clone 2120743: 3.25
- expression level of cDNA clone 2123516: 2.66
- expression level of cDNA clone 2160794: −2.51
- expression level of cDNA clone 2195427: 2.3
- expression level of cDNA clone 2343348: 2.18
- expression level of cDNA clone 2470485: −2.8
- expression level of cDNA clone 2513883: 3.93
- expression level of cDNA clone 2660756: 2.21
- expression level of cDNA clone 2757583: 4.93
- expression level of cDNA clone 2822027: 3
- expression level of cDNA clone 2921991: −2.95
- expression level of cDNA clone 2925373: −2.63
- expression level of cDNA clone 2933775: 4.32
- expression level of cDNA clone 3028719: −2.6
- expression level of cDNA clone 3084204: −2.47
- expression level of cDNA clone 3109384: 2.6
- expression level of cDNA clone 3170010: −3.67
- expression level of cDNA clone 3284411: −2.4
- expression level of cDNA clone 3715059: −3.17
- expression level of cDNA clone 4091186: 2.45
- expression level of cDNA clone 4508879: 2.86
- expression level of cDNA clone 5399371: 2.63

SMILES: CC(C)OC(=O)C(C)(C)Oc1ccc(C(=O)c2ccc(Cl)cc2)cc1 [Fenofibrate, fenofibrate]
- expression level of cDNA clone 63038: −2.9
- expression level of cDNA clone 280932: −2.67
- expression level of cDNA clone 437481: 2.44
- expression level of cDNA clone 443991: 2.47
- expression level of cDNA clone 450856: 2.49
- expression level of cDNA clone 452321: 3
- expression level of cDNA clone 480791: −2.27
- expression level of cDNA clone 630625: 3.95
- expression level of cDNA clone 970905: −4.06
- expression level of cDNA clone 1315663: −4.02
- expression level of cDNA clone 1619292: −5
- expression level of cDNA clone 1705208: 2.83
- expression level of cDNA clone 1846463: 6.58
- expression level of cDNA clone 1969563: 6.8
- expression level of cDNA clone 1975268: −2.42
- expression level of cDNA clone 2042056: 5.46
- expression level of cDNA clone 2055569: −3.12
- expression level of cDNA clone 2055867: −3.4
- expression level of cDNA clone 2123516: 4.6
- expression level of cDNA clone 2234853: −2.7
- expression level of cDNA clone 2360580: −4.5
- expression level of cDNA clone 2382195: −2.87
- expression level of cDNA clone 2399162: −2.5
- expression level of cDNA clone 2448149: −2.35
- expression level of cDNA clone 2513883: 4.47
- expression level of cDNA clone 2607921: −3.2
- expression level of cDNA clone 2757583: 4.75
- expression level of cDNA clone 2769888: −3.17
- expression level of cDNA clone 2929484: −2.89
- expression level of cDNA clone 2957205: 2.44
- expression level of cDNA clone 3222802: 2.55
- expression level of cDNA clone 3272165: −2.57
- expression level of cDNA clone 4287327: −3.14
- expression level of cDNA clone 4556538: 2.53

SMILES: O=c1cc(N2CCOCC2)oc2c(-c3ccccc3)cccc12 [LY294002]
- expression level of cDNA clone 172023: −3.38
- expression level of cDNA clone 279898: 6.7
- expression level of cDNA clone 459372: 4.65
- expression level of cDNA clone 1315663: −3.27
- expression level of cDNA clone 1468660: −2.28
- expression level of cDNA clone 1975268: −3.45
- expression level of cDNA clone 1998269: −2.46
- expression level of cDNA clone 2769888: −3.37
- expression level of cDNA clone 3427373: 4.2
- expression level of cDNA clone 3715059: −4.3
- expression level of cDNA clone 4556538: 2.45
